Test results as given in ChEMBL document CHEMBL3046035, “Synthesis and biological evaluation of novel 4,5-dihydropyrazole derivatives as potent anticancer and antimicrobial agents” (Med Chem Res, 2013).
Values after ≈ are worked out from the molar mass of the structure shown.

How the values were obtained:
[1] = system: Candida tropicalis; test: Antimicrobial activity against Candida tropicalis ATCC 1369 assessed as growth inhibition after 24 hr by broth microdilution method; assay type: functional; settings: ATCC 1369, 24 h
[2] = system: Aspergillus niger; test: Antimicrobial activity against Aspergillus niger ATCC 6275 assessed as growth inhibition after 24 hr by broth microdilution method; assay type: functional; settings: ATCC 6275, 24 h
[3] = system: Klebsiella pneumoniae; test: Antimicrobial activity against Klebsiella pneumoniae ATCC 10031 assessed as growth inhibition after 24 hr by broth microdilution method; assay type: functional; settings: ATCC 10031, 24 h
[4] = system: BGC-823; test: Anticancer activity against Homo sapiens (human) BGC823 cells assessed as inhibition of cell viability after 96 hr by MTT assay; assay type: functional, cell-based; settings: BGC-823, 96 h
[5] = system: A2780; test: Anticancer activity against Homo sapiens (human) A2780 cells assessed as inhibition of cell viability after 96 hr by MTT assay; assay type: functional, cell-based; settings: A2780, 96 h
[6] = system: Saccharomyces cerevisiae; test: Antimicrobial activity against Saccharomyces cerevisiae ATCC 9763 assessed as growth inhibition after 24 hr by broth microdilution method; assay type: functional; settings: ATCC 9763, 24 h
[7] = system: HeLa; test: Anticancer activity against Homo sapiens (human) HeLa cells assessed as inhibition of cell viability after 96 hr by MTT assay; assay type: functional, cell-based
[8] = system: MCF7; test: Anticancer activity against Homo sapiens (human) MCF7 cells assessed as inhibition of cell viability after 96 hr by MTT assay; assay type: functional, cell-based; settings: MCF7, 96 h
[9] = system: Staphylococcus aureus; test: Antimicrobial activity against Staphylococcus aureus ATCC 11632 assessed as growth inhibition after 24 hr by broth microdilution method; assay type: functional; settings: ATCC 11632, 24 h
[10] = system: Enterococcus faecalis; test: Antimicrobial activity against Enterococcus faecalis ATCC 14506 assessed as growth inhibition after 24 hr by broth microdilution method; assay type: functional; settings: ATCC 14506, 24 h
[11] = system: Bacillus subtilis; test: Antimicrobial activity against Bacillus subtilis ATCC 60511 assessed as growth inhibition after 24 hr by broth microdilution method; assay type: functional; settings: ATCC 60511, 24 h
[12] = system: Escherichia coli; test: Antimicrobial activity against Escherichia coli ATCC 10536 assessed as growth inhibition after 24 hr by broth microdilution method; assay type: functional; settings: ATCC 10536, 24 h
[13] = system: Pseudomonas aeruginosa; test: Antimicrobial activity against Pseudomonas aeruginosa ATCC 10145 assessed as growth inhibition after 24 hr by broth microdilution method; assay type: functional; settings: ATCC 10145, 24 h
[14] = system: A549; test: Anticancer activity against Homo sapiens (human) A549 cells assessed as inhibition of cell viability after 96 hr by MTT assay; assay type: functional, cell-based; settings: A549, 96 h

SMILES	MIC [1] [µg/mL]	MIC [2] [µg/mL]	MIC [3] [µg/mL]	IC50 [4] [nM]	IC50 [5] [nM]	MIC [6] [µg/mL]	IC50 [7] [nM]	IC50 [8] [nM]	MIC [9] [µg/mL]	MIC [10] [µg/mL]	MIC [11] [µg/mL]	MIC [12] [µg/mL]	MIC [13] [µg/mL]	IC50 [14] [nM]
Fc1cccc(F)c1C1CC(c2ccccc2)=NN1C1=NC(c2ccc(Cl)cc2)S1 (stereo not given)	8 (≈ 18.2 µM)	8 (≈ 18.2 µM)	16 (≈ 36.4 µM)	1410	2720	4 (≈ 9.09 µM)	4940	1690	31.2 (≈ 71 µM)	125 (≈ 284 µM)	31.2 (≈ 71 µM)	8 (≈ 18.2 µM)	62.5 (≈ 142 µM)	1560
O=[N+]([O-])c1ccc(C2N=C(N3N=C(c4ccccc4)CC3c3c(F)cccc3F)S2)cc1 (stereo not given)	125 (≈ 277 µM)	125 (≈ 277 µM)	31.2 (≈ 69.4 µM)	6110	4350	8 (≈ 17.8 µM)	6620	3220	31.2 (≈ 69.4 µM)	16 (≈ 35.5 µM)	62.5 (≈ 139 µM)	31.2 (≈ 69.4 µM)	8 (≈ 17.8 µM)	3260
Cc1ccc(C2N=C(N3N=C(c4ccccc4)CC3c3c(F)cccc3F)S2)cc1 (stereo not given)	125 (≈ 298 µM)	62.5 (≈ 149 µM)	4 (≈ 9.54 µM)	3220	5140	62.5 (≈ 149 µM)	6590	3230	16 (≈ 38.1 µM)	8 (≈ 19.1 µM)	16 (≈ 38.1 µM)	8 (≈ 19.1 µM)	4 (≈ 9.54 µM)	4210
Oc1ccc(C2N=C(N3N=C(c4ccccc4)CC3c3c(F)cccc3F)S2)cc1 (stereo not given)	16 (≈ 38 µM)	31.2 (≈ 74.1 µM)	16 (≈ 38 µM)	1040	3140	16 (≈ 38 µM)	6230	4320	16 (≈ 38 µM)	31.2 (≈ 74.1 µM)	31.2 (≈ 74.1 µM)	4 (≈ 9.49 µM)	4 (≈ 9.49 µM)	3440
COc1ccc(C2N=C(N3N=C(c4ccccc4)CC3c3c(F)cccc3F)S2)cc1 (stereo not given)	8 (≈ 18.4 µM)	8 (≈ 18.4 µM)	4 (≈ 9.18 µM)	1230	3260	16 (≈ 36.7 µM)	6490	2040	16 (≈ 36.7 µM)	16 (≈ 36.7 µM)	4 (≈ 9.18 µM)	16 (≈ 36.7 µM)	4 (≈ 9.18 µM)	2530
Fc1cccc(F)c1C1CC(c2ccccc2)=NN1c1nc(-c2ccccc2)cs1 (stereo not given)	125 (≈ 299 µM)	125 (≈ 299 µM)	62.5 (≈ 150 µM)	2010	3090	62.5 (≈ 150 µM)	5910	2230	31.2 (≈ 74.9 µM)	8 (≈ 19.2 µM)	8 (≈ 19.2 µM)	31.2 (≈ 74.9 µM)	62.5 (≈ 150 µM)	3010
Fc1cccc(F)c1C1CC(c2ccccc2)=NN1c1nc(-c2cccnc2)cs1 (stereo not given)	16 (≈ 38.2 µM)	16 (≈ 38.2 µM)	31.2 (≈ 74.7 µM)	1110	3180	31.2 (≈ 74.7 µM)	5980	2450	31.2 (≈ 74.7 µM)	31.2 (≈ 74.7 µM)	31.2 (≈ 74.7 µM)	16 (≈ 38.2 µM)	16 (≈ 38.2 µM)	1430
Fc1cccc(F)c1C1CC(c2ccccc2)=NN1c1nc(-c2ccc(Cl)cc2)cs1 (stereo not given)	62.5 (≈ 138 µM)	62.5 (≈ 138 µM)	125 (≈ 277 µM)	1430	3560	125 (≈ 277 µM)	6240	2760	62.5 (≈ 138 µM)	8 (≈ 17.7 µM)	31.2 (≈ 69.1 µM)	16 (≈ 35.4 µM)	31.2 (≈ 69.1 µM)	2110
Cc1ccc(-c2csc(N3N=C(c4ccccc4)CC3c3c(F)cccc3F)n2)cc1 (stereo not given)	125 (≈ 290 µM)	62.5 (≈ 145 µM)	4 (≈ 9.27 µM)	1200	3030	62.5 (≈ 145 µM)	4860	2500	4 (≈ 9.27 µM)	8 (≈ 18.5 µM)	4 (≈ 9.27 µM)	8 (≈ 18.5 µM)	8 (≈ 18.5 µM)	1210
Oc1ccc(-c2csc(N3N=C(c4ccccc4)CC3c3c(F)cccc3F)n2)cc1 (stereo not given)	125 (≈ 288 µM)	16 (≈ 36.9 µM)	16 (≈ 36.9 µM)	2110	2450	31.2 (≈ 72.1 µM)	7090	3040	16 (≈ 36.9 µM)	125 (≈ 288 µM)	31.2 (≈ 72.1 µM)	62.5 (≈ 144 µM)	62.5 (≈ 144 µM)	1570
O=[N+]([O-])c1ccc(-c2csc(N3N=C(c4ccccc4)CC3c3c(F)cccc3F)n2)cc1 (stereo not given)	125 (≈ 270 µM)	16 (≈ 34.6 µM)	16 (≈ 34.6 µM)	1050	2260	125 (≈ 270 µM)	5760	2090	16 (≈ 34.6 µM)	16 (≈ 34.6 µM)	16 (≈ 34.6 µM)	125 (≈ 270 µM)	31.2 (≈ 67.6 µM)	1930
Fc1cccc(F)c1C1CC(c2ccccc2)=NN1c1nc(-c2ccc(Br)cc2)cs1 (stereo not given)	62.5 (≈ 126 µM)	62.5 (≈ 126 µM)	16 (≈ 32.2 µM)	1340	2450	62.5 (≈ 126 µM)	6120	2140	16 (≈ 32.2 µM)	8 (≈ 16.1 µM)	8 (≈ 16.1 µM)	31.2 (≈ 63 µM)	31.2 (≈ 63 µM)	1930
Cc1ccc(/C=N/NC(=O)Cc2csc(N3N=C(c4ccccc4)CC3c3c(F)cccc3F)n2)cc1 (stereo not given)	8 (≈ 15.5 µM)	16 (≈ 31 µM)	125 (≈ 242 µM)	1450	2620	8 (≈ 15.5 µM)	5910	1650	125 (≈ 242 µM)	16 (≈ 31 µM)	16 (≈ 31 µM)	125 (≈ 242 µM)	16 (≈ 31 µM)	1500
O=C1CSC(N2N=C(c3ccccc3)CC2c2c(F)cccc2F)=N1 (stereo not given)	31.2 (≈ 87.4 µM)	31.2 (≈ 87.4 µM)	16 (≈ 44.8 µM)	2350	5320	31.2 (≈ 87.4 µM)	6450	1940	16 (≈ 44.8 µM)	16 (≈ 44.8 µM)	31.2 (≈ 87.4 µM)	62.5 (≈ 175 µM)	16 (≈ 44.8 µM)	4580
Fc1cccc(F)c1C1CC(c2ccccc2)=NN1C1=NC(c2ccc(Cl)cc2Cl)S1 (stereo not given)	62.5 (≈ 132 µM)	8 (≈ 16.9 µM)	31.2 (≈ 65.9 µM)	3310	4510	16 (≈ 33.7 µM)	6130	1890	125 (≈ 264 µM)	125 (≈ 264 µM)	31.2 (≈ 65.9 µM)	16 (≈ 33.7 µM)	125 (≈ 264 µM)	3250
Fc1cccc(F)c1C1CC(c2ccccc2)=NN1C1=NC(c2ccccc2)S1 (stereo not given)	31.2 (≈ 77.1 µM)	125 (≈ 308 µM)	16 (≈ 39.5 µM)	1970	4330	62.5 (≈ 154 µM)	5710	1720	16 (≈ 39.5 µM)	8 (≈ 19.7 µM)	31.2 (≈ 77.1 µM)	16 (≈ 39.5 µM)	62.5 (≈ 154 µM)	2110
O=C(/C=C/c1c(F)cccc1F)c1ccccc1	62.5 (≈ 256 µM)	62.5 (≈ 256 µM)	125 (≈ 512 µM)			62.5 (≈ 256 µM)			31.2 (≈ 128 µM)	125 (≈ 512 µM)	125 (≈ 512 µM)	125 (≈ 512 µM)	8 (≈ 32.8 µM)	
NC(=S)N1N=C(c2ccccc2)CC1c1c(F)cccc1F (stereo not given)	31.2 (≈ 98.5 µM)	62.5 (≈ 197 µM)	62.5 (≈ 197 µM)	1840	3620	125 (≈ 394 µM)	6250	2150	31.2 (≈ 98.5 µM)	31.2 (≈ 98.5 µM)	8 (≈ 25.2 µM)	62.5 (≈ 197 µM)	31.2 (≈ 98.5 µM)	2550
CCOC(=O)Cc1csc(N2N=C(c3ccccc3)CC2c2c(F)cccc2F)n1 (stereo not given)	31.2 (≈ 73.1 µM)	62.5 (≈ 146 µM)	8 (≈ 18.7 µM)	3850	3910	62.5 (≈ 146 µM)	6310	2110	16 (≈ 37.4 µM)	31.2 (≈ 73.1 µM)	31.2 (≈ 73.1 µM)	8 (≈ 18.7 µM)	8 (≈ 18.7 µM)	4180
O=C(Cc1csc(N2N=C(c3ccccc3)CC2c2c(F)cccc2F)n1)N/N=C/c1c(F)cccc1F (stereo not given)	4 (≈ 7.44 µM)	16 (≈ 29.8 µM)	8 (≈ 14.9 µM)	1320	2540	16 (≈ 29.8 µM)	4230	1200	16 (≈ 29.8 µM)	16 (≈ 29.8 µM)	62.5 (≈ 116 µM)	4 (≈ 7.44 µM)	8 (≈ 14.9 µM)	960
O=C(O)c1cn(C2CC2)c2cc(N3CCNCC3)c(F)cc2c1=O [CIPROFLOXACIN]			≤ 1						≤ 5	≤ 5	≤ 1	≤ 1	5 (≈ 15.1 µM)	
OC(Cn1cncn1)(Cn1cncn1)c1ccc(F)cc1F [FLUCONAZOLE]	≤ 1	≤ 1				≤ 1								
CCn1cc(C(=O)O)c(=O)c2cc(F)c(N3CCNCC3)cc21 [NORFLOXACIN]			≤ 1						5 (≈ 15.7 µM)	5 (≈ 15.7 µM)	≤ 1	≤ 1	5 (≈ 15.7 µM)	
